Measurements: patent US20260199481A1, “PROTEIN DEGRADATION TARGETING CHIMERA COMPOUND, COMPOSITION THEREOF, AND USE THEREOF” (TSINGHUA UNIVERSITY, priority 2022, published 2026)
Read-outs that look alike come from different tables or passages of the source.

Experiments:
BRD4 = target: T1, BRD4 (Homo sapiens, UniProt O60885); assay: Protein degradation activity, Western blotting of BRD4 in MCF-7 cells; format: cell-based
T1 construct: endogenous in cells; host or cells: MCF-7
Procedure: Cell treatment: MCF-7 cells in the logarithmic growth phase were taken for the experiment. Cells were inoculated in six-well plates at a density of 5.0×10^5 cells/per well and incubated at 37° C. for 24 hours. […]
Whole cell protein extraction: After completion of drug treatment, the culture medium was discarded, and the cells were washed 3 times with pre-cooled PBS. Cells were scraped off using a cell scraper, and the resulting solution was carefully aspirated and centrifuged at 300 g for 5 min at 4° C. to obtain cells, which were washed with PBS, resuspended, and centrifuged under the same conditions.
Cell lysis: Cells were washed with pre-cooled PBS and lysed in pre-cooled lysis buffer (containing 1% protease and phosphatase inhibitor) for 30 min, and cells were vigorously vortexed several times during lysis. After lysis was completed, the cells were centrifuged at 11,000 g for 15 min at 4° C., and the supernatant was collected as whole cell protein.
Protein denaturation: protein concentration was measured by Bradford assay. Proteins were diluted using 4× Protein Sampling Buffer. Subsequently, the proteins were denatured by heating in a metal bath at 100° C. for 15 min.
Protein Immunoblotting Assay (Western Blotting, WB) was Performed to Quantify BRD4 Protein:
1) Protein electrophoresis: proteins were separated in 4-12% or 4-20% Bis-Tris SDS-PAGE gels. The appropriate volume of the above cell whole protein extract was added to the lanes of the above SDS-PAGE gel. Turn on the power and electrophoresis at 120 V for 15 minutes, then adjust the voltage to 180 V and continue electrophoresis until the loading buffer reaches the lowest end of the gel.
(2) Membrane transfer: After electrophoresis, remove the gel, cut a PVDF membrane […] of the appropriate size and activate the membrane with anhydrous methanol, and install the membrane transfer device in the following order from the negative pole to the positive pole: sponge cushion, gel, PVDF membrane, sponge cushion. After installing the membrane transfer device, place it in the corresponding membrane transfer tank, check the liquid level of the solution required for membrane transfer, turn on the power, and complete the membrane transfer after 3 transfer cycles.
3) Blocking: Place the membrane in QuickBlock™ Western Blocking Buffer and shake it for 20 minutes at room temperature.
4) Primary antibody incubation: After the blocking, discard the blocking solution, add the primary antibody diluted to the appropriate concentration, and gently shake the membrane overnight at 4° C. After completing the incubation, wash the membrane 4 times with 1×TBST for 5 min/time.
(5) Secondary antibody incubation: Add secondary antibody diluted to the appropriate concentration and gently shake the PVDF membrane for 1 hour at room temperature. After incubation, the membrane was washed 4 times with 1×TBST for 5 min/time.
6) Developing: Prepare the ECL developing solution before developing. Lay the PVDF membrane flat on a clean plastic wrap, add the developer solution to the membrane, and let it stand for 1 minute away from light. Subsequently, the PVDF membrane was imaged on a gel system.

MCF-7 cell line = assay: In vivo anti-tumor activity, MCF-7 tumor model; design: species or system BALB/c nude mice; details: for tumor growth (tumor volume): 10 mg/kg subcutaneous injection
Procedure: To investigate the in vivo activation and antitumor activity of the PROTAC compound AS2 and X-ray-responsive PROTAC compound A1, we performed in vivo antitumor activity studies. The MCF-7 cell line was selected, and experiments were performed in BALB/c nude mice. Experimental animals: BALB/c nude mice (female; 6-8 weeks old) were all purchased from Beijing Vital River Laboratory Animal Technology Co., Ltd and housed in pathogen-free conditions with standard temperature and humidity at the Laboratory Animal Resources Center of Tsinghua University. All animal experiments were approved by the Animal Ethics Committee of Tsinghua University. Tumor model establishment: MCF-7 cells in logarithmic growth phase were taken, and 0.25% trypsin was added to digest the cells after washing the cells for 3 times with pre-cooled PBS buffer. The digested cells were centrifuged at 1000 rpm/min for 5 min, the precipitate was discarded, and the cells were resuspended with pre-cooled PBS and carefully blown to make a single-cell solution. After the cells were counted by a counter, the cell density was adjusted to 1×10^7 cells/mL, and 10 mL was taken into a centrifuge tube and stored on ice. Before inoculation of cancer cells, nude mice were gently wiped under the skin of the right axilla with a paper towel sprayed with 75% alcohol. A 1 mL disposable syringe was used to aspirate 200 μL of cell suspension, and the air in the needle was removed, and a single subcutaneous injection was carried out by puncturing about 1 cm forward from the needle inlet site. The needle was withdrawn slowly to avoid fluid leakage. Observe the tumor growth status daily. Drug administration: When the tumor volume reached 120 mm^3, the tumor-bearing mice were randomly grouped. Six groups were set up, namely PBS, PROTAC drug AS2, PROTAC prodrug A1, PBS+X-ray irradiation, PROTAC drug AS2+X-ray irradiation, and PROTAC prodrug A1+X-ray irradiation. Each drug was dispersed in the following solution: 1.25% DMSO+20% PEG+5% Tween 80+73.75% dd H2O; administered dose: 10 mg/kg; subcutaneous injection. X-ray irradiation was performed 3 hours after drug injection. The irradiation dose was 5 Gy. Tumor size and body weight were monitored every other day. Tumor volume was calculated using the formula: tumor volume=length×width^2/2. After 16 days of monitoring, mice in each group were euthanized, and tumors and major organs were collected.

MCF-7 cells [1] = assay: Annexin V/PI double staining for apoptosis detection; format: cell-based; details: FIG. 6
From the text: The surface of normal cells consists of lipids distributed asymmetrically on the inner and outer leaflets of the plasma membrane. One of them, phosphatidylserine (PS), is normally distributed only on the inner leaflet of the plasma membrane, and is therefore exposed only to the cytoplasm. However, when cells undergo apoptosis, PS is exposed on the outer leaflets of the plasma membrane. Annexin V is a phospholipid-binding protein capable of binding to PS. Therefore, fluorescently labeled Annexin V can be used to detect PS exposed to the outer leaflets of early apoptotic cells. By co-staining with propidium iodide (PI), Annexin V-PI can distinguish normal living cells, early apoptotic cells, and late apoptotic cells. Cell treatment: MCF-7 cells in the logarithmic growth phase were taken for the experiment. Cells were inoculated in six-well plates at a density of 5.0×10^5 cells/per well and incubated at 37° C. for 24 hours. Cells were treated with Example PROTAC drug AS2 and PROTAC prodrug A1 for 3 h, followed by X-ray irradiation, and cells continued to be cultured until 48 h after completion of irradiation. Cell collection: Collect the culture medium in a 1.5 mL centrifuge tube for spare. […] After incubation for 15 min at room temperature away from light, fluorescence detection was carried out by flow cytometry.

MCF-7 cells [2] = assay: In vitro anti-tumor effect, CellTiter 96 viability assay; format: cell-based; details: Homo sapiens, MCF7, light or radiation study
Procedure: Experimental Procedure: MCF-7 cells in the logarithmic growth phase were used for the experiment. The cells were seeded at 5000 cells per well in 96-well plates and incubated for 24 hours at 37° C. The cells were treated with Example compounds A1-D3 for 3 h. Subsequently, the irradiated group was irradiated with 10-30 Gy of X-rays, and the cells were continued to be incubated until 72 h after completion of irradiation. At the end of drug treatment, 20 μL of CellTiter 96° solution was added to each well. The well plates were incubated in an incubator for 2-4 hours, and then the absorbance was measured using a plate reader. Data were analyzed with GraphPad Prism software to obtain the IC50 values of each test compound.

[3] = X-ray 5 Gy 3 hours after drug injection
[4] = no irradiation, compared with PBS group

| DC50 (BRD4; WB, FIG. 3) [nM] | degradation activity on BRD4 (BRD4; tested concentrations 0-300 nM, FIG. 3) | BRD4 degradation (BRD4; co-treated with X-ray irradiation, 10 nM prodrug, FIG. 5) [%] | degradation activity on BRD4 with X-ray irradiation (BRD4; co-treated with X-ray irradiation, FIG. 5) | degradation activity on BRD4 prior to activation (BRD4; no irradiation, 0-300 nM, FIG. 4) | IC50 (MCF-7 cells [2]; compound 3 h, then X-rays 10 Gy or 30 Gy, 72 h after irradiation, read-out: Irradiation with 10 Gy or 30 Gy IC50) [nM] | IC50 (MCF-7 cells [2]; no irradiation, 72 h incubation, read-out: Radiation-free IC50) [nM] | SMILES | tumor growth (tumor volume) (MCF-7 cell line; [3]) | tumor growth (tumor volume) (MCF-7 cell line; [4]) | tumor weight at day 16 (MCF-7 cell line; 10 mg/kg subcutaneous, two administrations with radiation therapy, FIG. 9) | ability to induce apoptosis (MCF-7 cells [1]; X-rays and compound together, 48 h after irradiation) | ability to induce apoptosis (MCF-7 cells [1]; without X-ray irradiation) |
| --- | --- | --- | --- | --- | --- | --- | --- | --- | --- | --- | --- | --- |
| 31.2 | effectively degraded BRD4 |  |  |  |  |  | Cc1ncsc1-c1ccc([C@H](C)NC(=O)[C@@H]2C[C@@H](O)CN2C(=O)[C@H](NC(=O)COCCOCCOCCNC(=O)C[C@@H]2N=C(c3ccc(Cl)cc3)c3c(sc(C)c3C)-n3c(C)nnc32)C(C)(C)C)cc1 [AS2] | tumor growth was significantly inhibited | poor antitumor effect | essentially no tumor growth |  |  |
|  |  | > 50 | significantly degraded | failed to degrade BRD4 | 122 | 1020 | Cc1ncsc1-c1ccc([C@H](C)NC(=O)[C@@H]2C[C@@H](OC(=O)OCc3c(F)c(F)c(N=[N+]=[N-])c(F)c3F)CN2C(=O)[C@H](NC(=O)COCCOCCOCCNC(=O)C[C@@H]2N=C(c3ccc(Cl)cc3)c3c(sc(C)c3C)-n3c(C)nnc32)C(C)(C)C)cc1 [Compound A1] | enhance the efficacy of radiation therapy | failed to inhibit the tumor growth |  | significantly elevated early apoptotic and late apoptotic cells | comparable to that of control DMSO |
